Results reported in patent publication US20210228675A1, “HYPERTROPHIC SCAR INHIBITING COMPOSITION” (FUKUOKA UNIVERSITY, priority 2018, published 2021).
Where two headings read alike, the source gives them in different places. Non-standard residues stand in square brackets, D forms with d. Residues, ends and D or L forms follow the SMILES beside them. Hyp = O=C(O)[C@@H]1C[C@@H](O)CN1

Experiments:
[1] = Transfer of Pro-Hyp in blood after administration (LC-MS/MS); type: in vivo, C57 BL/6N mice; settings: for Tmax: female, C57 BL/6N, mouse, blood, mice without wound, read-out: time at which blood concentration of Pro-Hyp reached a peak (converted)
Experimental: To C57 BL/6N mice (8 to 10 weeks of age, female) (N=4, per group) in which no wound site is formed, a physiological saline solution (500 nmol/200 μL) of the dipeptide consisting of the amino acid sequence of Pro-Hyp (which may be hereinafter referred to as simply “Pro-Hyp”) is administered intraperitoneally by injection (single administration) or a physiological saline solution (2500 nmol/200 μL) of Pro-Hyp was orally administered using a probe (single administration). After administration, blood was collected over time and Pro-Hyp occurred in blood was measured by LC-MS/MS method. The measurement conditions of LC-MS/MS method were as follows.
Collected blood was 2 times diluted in physiological saline and then centrifugation was performed under conditions at 20° C., 500×g, for 15 minutes. To the supernatant recovered after the centrifugation, 3 volumes of 100% ethanol were added. The supernatant to which 100% ethanol had been added was centrifuged at 20° C., 13000 rpm, for 15 minutes to perform deproteinization. Subsequently, the deproteinized sample was 10 times diluted in 50 mM ammonium bicarbonate and analyzed by LC-MS/MS. For the LC conditions, the analysis was conducted using CAPCELL PAK C1 UG120 10 mm×I.D. 2.0 mm (OSAKA SODA CO., LTD.) as a guard column and the column Hypersil Gold PFP 150 mm×I.D. 2.1 mm, 5 μm (manufactured by Thermo Fisher Scientific, Inc.). The analysis conditions were Mobile phase A MeOH, Mobile phase B a 2% formic acid aqueous solution containing 2 mM ammonium acetate, injection volume 5 μL, and gradient of Table 1 below.
The MS/MS was conducted using a tandem mass spectrometer (TSQ Vantage (manufactured by Thermo Fisher Scientific, Inc.)) under conditions of Method of ionization: Positive ESI, Spray voltage: 3000 V, Vaporizer: 300° C., Sheath gas: 30, Aux gas: 15, Capillary temperature: 250° C., MRM conditions: Parent Mass 229.1, Product Mass 70, Collision energy: 29 ev, S-Lens: 68.
Moreover, in the intraperitoneal administration, the Pro-Hyp concentration reached very high since it transferred in blood without gastrointestinal absorption. […] The C57 BL/6N mice in which no wound site was formed were used in this experiment, it is considered that a similar result is also obtained with Model-1 mice and Model-2 mice generated from the same line of mice.

[2] = test system: granulation tissue in wound site of abdominal wall circular incision model (Model-2) mice; assay: Formation of granulation tissue by administration of various polypeptides in Model-2 mice; type: in vivo, C57 BL/6N mice; settings: Day 7; i.p. once a day for 7 days, doses of Table 7; control sparse; FIG. 9
Experimental: In this Example, aiming to examine granulation tissue formed in the peritoneum layer under tension, a novel model (Model-2) of granulation tissue formation that occurs between the peritoneum layers, which are under the minimal effect of the healing response from the skin layer and under direct influence of the tension of muscles, was generated in the following procedures. Female C57 BL/6N mice at 8 to 10 weeks of age were used. Anesthesia was introduced by administering 200 μL per animal (0.065 mg/g weight) of the anesthetic Somnopentyl (manufactured by Shering-Plough Corporation) to the peritoneal cavity. After the introduction of anesthesia, abdominal skin was cut open 1.5 cm along the midline using scissors for operations. […] Subsequently, the center part of the abdominal wall was picked up with round tip tweezers with an outside diameter of 3 mm, and the tissue in the central part of the abdominal wall was completely removed surgically in a circle with curved tip micro-operation scissors (Bottom panel in FIG. 1). After the incision, the positions 0.25 cm apart from the upper end and 0.25 cm apart from the bottom end of the incised skin (wound site) were sewed up to remove the tension of the skin. Subsequently, the skin was wrapped with Tegaderm and an underwear-shaped silicon protector was further put on to prevent the self-harm of the wound site. […]

[3] = oral, single administration 2500 nmol/200 μL

Compound	Tmax ([1]; ip, intraperitoneal, single administration 500 nmol/200 μL) [min]	Tmax [1, 3] [min]	time at which blood concentration decreased to a baseline level ([1]; intraperitoneal, single administration 500 nmol/200 μL) [h]	time at which blood concentration decreased to a baseline level [1, 3] [h]	collagen fibers in granulation tissue, Masson trichrome stain [2]
O=C(O)[C@@H]1C[C@@H](O)CN1C(=O)[C@@H]1CCCN1 [Pro-Hyp] (H-Pro-[Hyp]-OH; N-terminus and C-terminus assumed)	15	15	3	3	–
Hyp-Gly	–	–	–	–	the collagen fibers were dense and matured as the tissue
